In US20230053540A1, “TREATMENT OF LIVER INJURY” (Massachusetts Institute of Technology, priority 2019, published 2023):

System: hepatocytes
Assay: Seq-Well scRNA-Seq of hepatocytes after APAP overdose (signature scores, DEG vs untreated)
Assay type: in vivo, mouse
[1] = hepatocyte cluster A96 (APAP, 96 h) vs all other clusters
[2] = hepatocytes, cluster A24 (APAP) vs other treatment clusters
[3] = hepatocytes, cluster A48 (APAP) vs other treatment clusters

SMILES: CC(=O)Nc1ccc(O)cc1 [APAP, acetaminophen]
- avg_logFC Fmo1 [1]: 0.2535
- avg_logFC Gclm [1]: 0.269
- avg_logFC Hamp2 [1]: 0.2597
- avg_logFC Hsd17b7 [1]: 0.3023
- avg_logFC Lcat [1]: 0.2519
- avg_logFC Mocs2 [1]: 0.2666
- avg_logFC Mtdh [1]: 0.2838
- avg_logFC Ndufa3 [1]: 0.2765
- avg_logFC Ndufb2 [1]: 0.3005
- avg_logFC Nfe2l2 [1]: 0.2513
- avg_logFC Oat [1]: 0.3213
- avg_logFC Pabpc1 [1]: 0.2527
- avg_logFC Pdk1 [1]: 0.2558
- avg_logFC Prkd3 [1]: 0.2593
- avg_logFC Ptp4a2 [1]: 0.2634
- avg_logFC Rgn [1]: 0.291
- avg_logFC Sdhc [1]: 0.2722
- avg_logFC Sdhd [1]: 0.261
- avg_logFC Slc4a4 [1]: 0.2916
- avg_logFC Slc25a10 [1]: 0.2605
- avg_logFC Tgoln1 [1]: 0.2968
- avg_logFC Tmed5 [1]: 0.2563
- avg_logFC Tmem106b [1]: 0.2604
- avg_logFC Tob1 [1]: 0.301
- avg_logFC Tsc22d3 [1]: 0.3181
- avg_logFC Usmg5 [1]: 0.2565
- avg_logFC Zfp91 [1]: 0.3255
- AA474408 avg_logFC [2]: 0.4148
- Abca1 avg_logFC [2]: 0.3831
- Acox1 avg_logFC [2]: 0.2743
- Acsl4 avg_logFC [2]: 0.299
- Adh4 avg_logFC [2]: 0.392
- Ak3 avg_logFC [2]: 0.2504
- Aox3 avg_logFC [2]: 0.3489
- Arcn1 avg_logFC [2]: 0.3044
- Atp8b1 avg_logFC [2]: 0.361
- Atp11c avg_logFC [2]: 0.2568
- Atxn1 avg_logFC [2]: 0.325
- Calm1 avg_logFC [2]: 0.3702
- Calu avg_logFC [2]: 0.3005
- Canx avg_logFC [2]: 0.2771
- Cltc avg_logFC [2]: 0.3397
- Cmah avg_logFC [2]: 0.4243
- Copa avg_logFC [2]: 0.3334
- Cps1 avg_logFC [2]: 0.2775
- Ctnnb1 avg_logFC [2]: 0.329
- Cyb5r3 avg_logFC [2]: 0.3097
- Ddost avg_logFC [2]: 0.2909
- Dhcr24 avg_logFC [2]: 0.2824
- Dnajb11 avg_logFC [2]: 0.3288
- Dnajc12 avg_logFC [2]: 0.324
- Echdc1 avg_logFC [2]: 0.2818
- Edem1 avg_logFC [2]: 0.2675
- Efna1 avg_logFC [2]: 0.3161
- Eif4g1 avg_logFC [2]: 0.2763
- Eif4g2 avg_logFC [2]: 0.3515
- Eprs avg_logFC [2]: 0.2513
- Etnk1 avg_logFC [2]: 0.3194
- Fam120a avg_logFC [2]: 0.2583
- Fasn avg_logFC [2]: 0.2699
- Fndc3b avg_logFC [2]: 0.3202
- Fos avg_logFC [2]: 0.3632
- Gjb2 avg_logFC [2]: 0.2998
- Gm5424 avg_logFC [2]: 0.262
- Gm24245 avg_logFC [2]: 0.414
- Grlf1 avg_logFC [2]: 0.2556
- Hnf4a avg_logFC [2]: 0.2549
- Hs3st3b1 avg_logFC [2]: 0.3219
- Hsd3b5 avg_logFC [2]: 0.3009
- Hspa13 avg_logFC [2]: 0.342
- Ibtk avg_logFC [2]: 0.2959
- Il6st avg_logFC [2]: 0.3011
- Il13ra1 avg_logFC [2]: 0.2889
- Insig1 avg_logFC [2]: 0.4125
- Kmo avg_logFC [2]: 0.2687
- Lasp1 avg_logFC [2]: 0.2608
- Lgr4 avg_logFC [2]: 0.2572
- Lpgat1 avg_logFC [2]: 0.2525
- Lrg1 avg_logFC [2]: 0.3096
- Lrp1 avg_logFC [2]: 0.4837
- Lrrc59 avg_logFC [2]: 0.2688
- Met avg_logFC [2]: 0.2512
- Mlec avg_logFC [2]: 0.3405
- Mtss1 avg_logFC [2]: 0.2522
- Mtus1 avg_logFC [2]: 0.3125
- Mug2 avg_logFC [2]: 0.3166
- Nab1 avg_logFC [2]: 0.2601
- Nars avg_logFC [2]: 0.3127
- Nedd4 avg_logFC [2]: 0.3305
- Nr1d2 avg_logFC [2]: 0.3855
- Nr5a2 avg_logFC [2]: 0.2599
- Nrp1 avg_logFC [2]: 0.33
- Ostc avg_logFC [2]: 0.3082
- Prg4 avg_logFC [2]: 0.4007
- Prkd3 avg_logFC [2]: 0.3041
- Proz avg_logFC [2]: 0.28
- Pten avg_logFC [2]: 0.2663
- Ptprf avg_logFC [2]: 0.2888
- Qsox1 avg_logFC [2]: 0.2817
- Rab1 avg_logFC [2]: 0.3145
- Rpn1 avg_logFC [2]: 0.3991
- Rrbp1 avg_logFC [2]: 0.2968
- Sdf2l1 avg_logFC [2]: 0.3078
- Sec31a avg_logFC [2]: 0.2596
- Sec61b avg_logFC [2]: 0.3008
- Sel1l avg_logFC [2]: 0.2833
- Sh3bgrl avg_logFC [2]: 0.2668
- Slc3a1 avg_logFC [2]: 0.3074
- Slc38a10 avg_logFC [2]: 0.2557
- Spcs3 avg_logFC [2]: 0.3907
- Srebf1 avg_logFC [2]: 0.3149
- Srp72 avg_logFC [2]: 0.28
- Srpr avg_logFC [2]: 0.2914
- Ssr1 avg_logFC [2]: 0.3129
- Stard4 avg_logFC [2]: 0.2922
- Stt3b avg_logFC [2]: 0.2648
- Tmed7 avg_logFC [2]: 0.3715
- Tmem30a avg_logFC [2]: 0.3056
- Trip12 avg_logFC [2]: 0.2832
- Txndc5 avg_logFC [2]: 0.2758
- Uggt1 avg_logFC [2]: 0.2805
- Uso1 avg_logFC [2]: 0.3202
- Usp4 avg_logFC [2]: 0.2959
- Usp9x avg_logFC [2]: 0.3387
- Zbtb20 avg_logFC [2]: 0.3135
- Abcb4 avg_logFC [3]: 0.4425
- Abcd2 avg_logFC [3]: 0.2813
- Abhd14b avg_logFC [3]: 0.4059
- Acad11 avg_logFC [3]: 0.3851
- Agt avg_logFC [3]: 0.5795
- Ahcy avg_logFC [3]: 0.34
- Ahsg avg_logFC [3]: 0.3592
- Aldh9a1 avg_logFC [3]: 0.3826
- Aldob avg_logFC [3]: 0.4375
- Ambp avg_logFC [3]: 0.286
- Amy1 avg_logFC [3]: 0.4216
- Angptl3 avg_logFC [3]: 0.6111
- Apoa5 avg_logFC [3]: 0.4483
- Apoc2 avg_logFC [3]: 0.8639
- Apoc3 avg_logFC [3]: 0.407
- Apoe avg_logFC [3]: 0.5049
- Apoh avg_logFC [3]: 0.4628
- Atp5b avg_logFC [3]: 0.3281
- Atp5h avg_logFC [3]: 0.5978
- Bfar avg_logFC [3]: 0.308
- Bnip3 avg_logFC [3]: 0.462
- Cdo1 avg_logFC [3]: 0.3971
- Cebpb avg_logFC [3]: 0.3684
- Ces1b avg_logFC [3]: 0.483
- Ces1c avg_logFC [3]: 0.5488
- Chchd10 avg_logFC [3]: 0.7517
- Cox5a avg_logFC [3]: 0.4197
- Cox8a avg_logFC [3]: 0.552
- Cp avg_logFC [3]: 0.4274
- Cyp4a10 avg_logFC [3]: 0.9326
- Cyp4a14 avg_logFC [3]: 1.281
- Dbp avg_logFC [3]: 0.2896
- Ddb1 avg_logFC [3]: 0.3544
- Decr1 avg_logFC [3]: 0.5669
- Decr2 avg_logFC [3]: 0.4129
- Ech1 avg_logFC [3]: 0.418
- Echs1 avg_logFC [3]: 0.4649
- Ephx2 avg_logFC [3]: 0.3869
- F2 avg_logFC [3]: 0.3952
- F10 avg_logFC [3]: 0.3927
- F12 avg_logFC [3]: 0.388
- Fah avg_logFC [3]: 0.3913
- Fcgrt avg_logFC [3]: 0.4084
- Fkbp5 avg_logFC [3]: 0.2572
- Fth1 avg_logFC [3]: 0.375
- Gabarap avg_logFC [3]: 0.4014
- Gc avg_logFC [3]: 0.2979
- Gltscr2 avg_logFC [3]: 0.3432
- Gm6484 avg_logFC [3]: 0.4108
- Gm23935 avg_logFC [3]: 0.4738
- Grn avg_logFC [3]: 0.431
- Gstt3 avg_logFC [3]: 0.3384
- Gys2 avg_logFC [3]: 0.4231
- Hdac11 avg_logFC [3]: 0.3557
- Herpud1 avg_logFC [3]: 0.6044
- Hmgcl avg_logFC [3]: 0.5501
- Hmgcs2 avg_logFC [3]: 0.7687
- Hpx avg_logFC [3]: 0.3851
- Hrg avg_logFC [3]: 0.5316
- Hsd17b13 avg_logFC [3]: 0.6221
- Hspa8 avg_logFC [3]: 0.4107
- Khk avg_logFC [3]: 0.5202
- Lcat avg_logFC [3]: 0.5054
- Lims2 avg_logFC [3]: 0.3761
- Lpin1 avg_logFC [3]: 0.515
- Mat1a avg_logFC [3]: 0.7753
- Mfsd2a avg_logFC [3]: 0.6614
- Mlycd avg_logFC [3]: 0.4378
- Ndrg2 avg_logFC [3]: 0.3482
- Nr1i3 avg_logFC [3]: 0.4759
- Oaf avg_logFC [3]: 0.5021
- P4hb avg_logFC [3]: 0.2981
- Pabpc1 avg_logFC [3]: 0.4782
- Plin5 avg_logFC [3]: 0.3985
- Pnpla2 avg_logFC [3]: 0.3465
- Prodh2 avg_logFC [3]: 0.5055
- Rbp4 avg_logFC [3]: 0.3942
